Experimental data reported in patent publication US20250034159A1, “INHIBITORS OF EPIDERMAL GROWTH FACTOR RECEPTOR” (ORIC Pharmaceuticals, Inc., priority 2021, published 2025).
pIC50: −log10 of the molar value. Where two headings read alike, the source gives them in different places.

Assays:
BaF3_EGFR d19/CS cells = experiment: Biological Activity Assay D: BaF3 cell proliferation assay, EGFR exon 19 deletion/C797S (BaF3 d19/CS); format: cell-based; settings: Ba/F3 EGFR, read-out: BaF3 d19/CS IC50
Ba/F3_EGFR WT cells = experiment: Biological Activity Assay D: BaF3 cell proliferation assay, EGFR wild-type (BaF3 WT); format: cell-based; settings: Ba/F3 EGFR, read-out: BaF3 WT IC50
BaF3_EGFR LR/CS cells = experiment: Biological Activity Assay D: BaF3 cell proliferation assay, EGFR L858R/C797S mutant (BaF3 LR/CS); format: cell-based; settings: Ba/F3 EGFR, read-out: BaF3 LR/CS IC50
[1] = biological target: recombinant human EGFR exon 19 deletion/C797S double mutant protein (Homo sapiens (Human), UniProt P00533, C797S/DEL746-750); experiment: Biological Activity Assay C: biochemical assay against EGFR exon 19 deletion/C797S protein (EGFR d19/CS)
Sequence of recombinant human EGFR exon 19 deletion/C797S double mutant protein (P00533 other isoform, or with tags, fused parts or gaps C797S/del 1-668/del 746-750 limits assumed): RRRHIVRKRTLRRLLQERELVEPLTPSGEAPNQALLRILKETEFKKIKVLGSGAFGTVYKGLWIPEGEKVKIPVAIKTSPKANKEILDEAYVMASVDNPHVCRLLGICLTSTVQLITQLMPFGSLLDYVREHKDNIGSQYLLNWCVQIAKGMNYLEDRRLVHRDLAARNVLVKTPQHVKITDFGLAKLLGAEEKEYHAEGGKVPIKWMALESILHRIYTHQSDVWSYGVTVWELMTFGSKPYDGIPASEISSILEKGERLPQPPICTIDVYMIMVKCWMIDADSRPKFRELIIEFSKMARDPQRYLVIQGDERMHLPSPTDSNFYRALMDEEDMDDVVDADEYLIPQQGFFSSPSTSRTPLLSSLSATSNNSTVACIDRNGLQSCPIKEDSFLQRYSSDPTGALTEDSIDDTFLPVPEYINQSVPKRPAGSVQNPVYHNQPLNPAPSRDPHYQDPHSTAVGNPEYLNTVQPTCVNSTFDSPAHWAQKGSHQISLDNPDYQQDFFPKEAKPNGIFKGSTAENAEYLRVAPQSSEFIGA
Procedure, shortened: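 Compounds were tested as 16-point serial dilutions (final DMSO 2.5%) with a Phosphosens peptide sensor/ATP working solution (40 uM/4 mM). The signal was read kinetically over 90 cycles at 120 s intervals. IC50s came from 4-parameter fits of per-well slopes.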

[2] = BaF3_EGFR d19/CS cells, ~72 hours, CellTiter-Glo
[3] = Ba/F3_EGFR WT cells, ~72 hours, CellTiter-Glo
[4] = BaF3_EGFR LR/CS cells, ~72 hours, CellTiter-Glo

Compound	pIC50 (BaF3_EGFR d19/CS cells; [2])	pIC50 (Ba/F3_EGFR WT cells; [3])	pIC50 (BaF3_EGFR LR/CS cells; [4])	pIC50 [1]	pIC50 (BaF3_EGFR d19/CS cells; 72 h)	pIC50 (Ba/F3_EGFR WT cells; 72 h)	pIC50 (BaF3_EGFR LR/CS cells; 72 h)
O=C1CCCCN1c1cc2c(-c3cn(C4CS(=O)(=O)C4)nc3-c3ccc(F)cc3)ncnc2o1 [Example 160, 3-{3-(4-fluorophenyl)-4-[6-(2-oxopiperidin-1-yl)furo[2,3-d]pyrimidin-4-yl]-1H-pyrazol-1-yl}-1λ6-thietane-1,1-dione]	6.44	4.85	6.12	8.30			
N=S1(=O)CCC(n2cc(-c3ncnc4oc(-c5ccccc5)cc34)c(-c3ccc(F)cc3)n2)C1 (stereo not drawn) [Example 161, 3-[3-(4-fluorophenyl)-4-(6-phenylfuro[2,3-d]pyrimidin-4-yl)-1H-pyrazol-1-yl]-1-imino-1λ6-thiolan-1-one]	7.88	6.25	8.31	9.85			
C[C@]1(O)C[C@@H](Cn2cc(-c3ncnc4oc(-c5ccccc5)cc34)c(-c3ccc(F)cc3)n2)C1 [Example 162, (1s,3s)-3-{[3-(4-fluorophenyl)-4-(6-phenylfuro[2,3-d]pyrimidin-4-yl)-1H-pyrazol-1-yl]methyl}-1-methylcyclobutan-1-ol]	7.19	5.87	7.98	9.36			
CS(=O)(=O)[C@H]1C[C@@H](n2cc(-c3ncnc4oc(-c5ccccc5)cc34)c(-c3ccc(F)cc3)n2)C1 [Example 163, 4-{3-(4-fluorophenyl)-1-[(1s,3s)-3-(methanesulfonyl)cyclobutyl]-1H-pyrazol-4-yl}-6-phenylfuro[2,3-d]pyrimidine]	7.66	6.21	7.99	9.57			
O=S1(=O)CC(n2cc(-c3ncnc4oc(-c5cccnc5)cc34)c(-c3ccc(F)cc3)n2)C1 [Example 164, 3-{3-(4-fluorophenyl)-4-[6-(pyridin-3-yl)furo[2,3-d]pyrimidin-4-yl]-1H-pyrazol-1-yl}-1λ6-thietane-1,1-dione]	7.44	6.05	7.58	9.54			
O=S1(=O)CC(n2cc(-c3ncnc4oc(-c5ccncc5)cc34)c(-c3ccc(F)cc3)n2)C1 [Example 165, 3-{3-(4-fluorophenyl)-4-[6-(pyridin-4-yl)furo[2,3-d]pyrimidin-4-yl]-1H-pyrazol-1-yl}-1λ6-thietane-1,1-dione]	7.43	5.96	7.69	9.59			
O=S1(=O)CC(n2cc(-c3ncnc4oc(N5CC6(CCOC6)C5)cc34)c(-c3ccc(F)cc3)n2)C1 [Example 168, 3-{3-(4-fluorophenyl)-4-[6-(6-oxa-2-azaspiro[3.4]octan-2-yl)furo[2,3-d]pyrimidin-4-yl]-1H-pyrazol-1-yl}-1λ6-thietane-1,1-dione]	5.94	< 4.70	5.45	7.81			
O=S1(=O)CC(n2cc(-c3ncnc4oc(-c5cccc(C(F)(F)F)c5)cc34)c(-c3ccc(F)cc3)n2)C1 [Example 169, 3-[3-(4-fluorophenyl)-4-{6-[3-(trifluoromethyl)phenyl]furo[2,3-d]pyrimidin-4-yl}-1H-pyrazol-1-yl]-1λ6-thietane-1,1-dione]	6.34	4.95	6.40	8.51			
Fc1ccc(-c2nn(C3CC(F)(F)C3)cc2-c2ncnc3oc(-c4ccccc4)cc23)cc1 [Example 170, 4-[1-(3,3-difluorocyclobutyl)-3-(4-fluorophenyl)-1H-pyrazol-4-yl]-6-phenylfuro[2,3-d]pyrimidine]	6.67	5.32	7.01	8.86			
O=S1(=O)CCC(n2cc(-c3ncnc4[nH]c(-c5ccccc5)nc34)c(-c3ccc(F)cc3)n2)C1 (stereo not drawn) [Example 171, 3-[3-(4-fluorophenyl)-4-(8-phenyl-9H-purin-6-yl)-1H-pyrazol-1-yl]-1λ6-thiolane-1,1-dione]	7.58	5.74	8.11	10.22			
Fc1ccc(-c2nn([C@H]3C[C@H]4CC[C@@H](C3)O4)cc2-c2ncnc3oc(-c4ccccc4)cc23)cc1 [Example 172, 4-{3-(4-fluorophenyl)-1-[(1R,3r,5S)-8-oxabicyclo[3.2.1]octan-3-yl]-1H-pyrazol-4-yl}-6-phenylfuro[2,3-d]pyrimidine]	6.70	5.15	7.48	8.84			
O=S1(=O)CC(n2cc(-c3ncnc4oc(-c5ccccn5)cc34)c(-c3ccc(F)cc3)n2)C1 [Example 173, 3-{3-(4-fluorophenyl)-4-[6-(pyridin-2-yl)furo[2,3-d]pyrimidin-4-yl]-1H-pyrazol-1-yl}-1λ6-thietane-1,1-dione]	7.54	6.10	7.75	9.96			
O=S1(=O)CC(n2cc(-c3ncnc4oc(-c5ccnnc5)cc34)c(-c3ccc(F)cc3)n2)C1 [Example 174, 3-{3-(4-fluorophenyl)-4-[6-(pyridazin-4-yl)furo[2,3-d]pyrimidin-4-yl]-1H-pyrazol-1-yl}-1λ6-thietane-1,1-dione]	6.31	5.04	6.11	8.43			
O=S1(=O)CC(n2cc(-c3ncnc4oc(-c5cncnc5)cc34)c(-c3ccc(F)cc3)n2)C1 [Example 175, 3-{3-(4-fluorophenyl)-4-[6-(pyrimidin-5-yl)furo[2,3-d]pyrimidin-4-yl]-1H-pyrazol-1-yl}-1λ6-thietane-1,1-dione]	6.61	4.93	6.33	8.22			
NC(=O)c1cccc(-c2cc3c(-c4cn(C5CS(=O)(=O)C5)nc4-c4ccc(F)cc4)ncnc3o2)c1 [Example 176, 3-{4-[1-(1,1-dioxo-1λ6-thietan-3-yl)-3-(4-fluorophenyl)-1H-pyrazol-4-yl]furo[2,3-d]pyrimidin-6-yl}benzamide]	6.85	5.59	6.87	9.44			
O=S1(=O)CC(n2cc(-c3ncnc4oc(-c5cccc(C6CC6)c5)cc34)c(-c3ccc(F)cc3)n2)C1 [Example 178, 3-{4-[6-(3-cyclopropylphenyl)furo[2,3-d]pyrimidin-4-yl]-3-(4-fluorophenyl)-1H-pyrazol-1-yl}-16-thietane-1,1-dione]	6.73	5.28	7.05	8.64			
CCn1cc(-c2ncnc3oc(-c4ccccc4)cc23)c(-c2ccc(F)cc2)n1 [Example 179, 4-[1-ethyl-3-(4-fluorophenyl)-1H-pyrazol-4-yl]-6-phenylfuro[2,3-d]pyrimidine]				9.41	7.39	5.66	7.76
O=C(c1ccccc1)N1CC=C(c2cc3c(-c4cn(C5CS(=O)(=O)C5)nc4-c4ccc(F)cc4)ncnc3o2)CC1 [Example 180, 3-{4-[6-(1-benzoyl-1,2,3,6-tetrahydropyridin-4-yl)furo[2,3-d]pyrimidin-4-yl]-3-(4-fluorophenyl)-1H-pyrazol-1-yl}-1λ6-thietane-1,1-dione]	6.79	5.53	6.89	9.41			
CS(=O)(=O)N1CC=C(c2cc3c(-c4cn(C5CS(=O)(=O)C5)nc4-c4ccc(F)cc4)ncnc3o2)CC1 [Example 181, 3-[3-(4-fluorophenyl)-4-{6-[1-(methanesulfonyl)-1,2,3,6-tetrahydropyridin-4-yl]furo[2,3-d]pyrimidin-4-yl}-1H-pyrazol-1-yl]-1λ6-thietane-1,1-dione]	7.01	5.68	7.10	9.57			
O=S1(=O)CC(n2cc(-c3ncnc4oc(-c5ccccc5C(F)(F)F)cc34)c(-c3ccc(F)cc3)n2)C1 [Example 182, 3-[3-(4-fluorophenyl)-4-{6-[2-(trifluoromethyl)phenyl]furo[2,3-d]pyrimidin-4-yl}-1H-pyrazol-1-yl]-1λ6-thietane-1,1-dione]	6.41	< 4.70	6.35	8.78			
NC(=O)c1ccccc1-c1cc2c(-c3cn(C4CS(=O)(=O)C4)nc3-c3ccc(F)cc3)ncnc2o1 [Example 183, 2-{4-[1-(1,1-dioxo-1λ6-thietan-3-yl)-3-(4-fluorophenyl)-1H-pyrazol-4-yl]furo[2,3-d]pyrimidin-6-yl}benzamide]	6.84	5.27	6.84	9.85			
Fc1ccc(-c2nn([C@@H]3C[C@H]4CC[C@@H](C3)O4)cc2-c2ncnc3oc(-c4ccccc4)cc23)cc1 [Example 186, 4-{3-(4-fluorophenyl)-1-[(1R,3s,5S)-8-oxabicyclo[3.2.1]octan-3-yl]-1H-pyrazol-4-yl}-6-phenylfuro[2,3-d]pyrimidine]	6.46	5.35	6.73	9.20			
O=S1(=O)CC(n2cc(-c3ncnc4oc(-c5cccnn5)cc34)c(-c3ccc(F)cc3)n2)C1 [Example 187, 3-{3-(4-fluorophenyl)-4-[6-(pyridazin-3-yl)furo[2,3-d]pyrimidin-4-yl]-1H-pyrazol-1-yl}-1λ6-thietane-1,1-dione]	6.23	5.04	5.91	8.47			
O=S1(=O)CC(n2cc(-c3ncnc4oc(-c5cnccn5)cc34)c(-c3ccc(F)cc3)n2)C1 [Example 188, 3-{3-(4-fluorophenyl)-4-[6-(pyrazin-2-yl)furo[2,3-d]pyrimidin-4-yl]-1H-pyrazol-1-yl}-1λ6-thietane-1,1-dione]	6.61	4.93	6.31	8.65			
